Entries after “also recorded” stand apart in the source; their conditions may differ.
How the values were obtained:
[1] = tested on: HEK 293FT cells; assay: SynNotch background (leaky) activation, SN versus SN-LWF core, HEK 293FT cells; format: cell-based, human
Experimental: FIGS. 31A-31C show reduction of SynNotch leakiness by incorporation of the juxtamembrane LWF motif (FIG. 31A) Schematic of the Notch TMD and LWF motif, slightly modified from to highlight the difference between the original SynNotch core's C-terminus and the modified SynNotch core's C-terminus, where 10 amino acids are added to include the LWF motif (FIGS. 31B and 31C) anti-FITC SynNotch receptors containing SN or SN-LWF as the core domain are expressed and tested in HEK 293FT cells. Cells are either plated on fibronectin alone to test background activation (dashed lines) or on fibronectin with BSA-FITC to activate the receptors (solid lines). FIG. 31A discloses SEQ ID NO: 70. […] Values shown are the percentage of cells in the ON state for each case.
Data herein provides preliminary evidence that inclusion of the LWF motif reduces background activation in SynNotch receptors. In initial experiments, the original SynNotch core design (SN) was compare with a SynNotch core containing the LWF motif (SN-LWF) (FIG. 31A). Each receptor core was test with two different transcription factor intracellular domains (ICD's): Gal4 fused to VP64 (“VP64,” a modest transcriptional activator commonly used in SynNotch) and Gal4 fused to VPR (“VPR,” a strong transcriptional activator, whose strength is penalized by high background activation in SynNotch constructs). […]

[2] = molecular target: T1, NS3 protease (Hepatitis C virus genotype 1a, UniProt P26664, A1066T/DELINS1218-1635AV/I1179L/T1080A); format: cell-based; details: for stabilization of full-length dCas9-NS3 TF (immunoblot): drug-treated versus untreated cells
[3] = molecular target: T1, NS3 protease; format: cell-based; details: Cho-K1 UAS H2B-Citrine line expressing DBGal4-NS3-TAGal4; drug ~24 hours; flow cytometry (FIG. 18)
[4] = molecular target: T1, NS3 protease; format: cell-based; details: increasing concentration of BILN-2061; 100 ng/mL doxycycline
[5] = molecular target: T1, NS3 protease; format: cell-based; details: DBGal4-NS3-TAGal4, anti-HA western; intact TF undetectable in untreated controls
[6] = molecular target: T1, NS3 protease; format: cell-based; details: 3 μM BILN-2061
[7] = tested on: CXCR4; assay: dCas9-NS3-NLS/VPR drug-induced gene upregulation (flow cytometry); format: cell-based, human; details: dCas9-NS3-NLS/VPR with sgRNA
Experimental: FIGS. 16A-16E show drug-control over endogenous gene expression using dCas9-NS3-NLSNPR. FIG. 16A Schematic depiction of the drug-inducible stabilization and nuclear localization of dCas9-NS3-NLSNPR. […] An unfused dCas9 domain (160 kDa) is produced in the absence of drug. FIG. 16C Immunostained HeLa cells showing the subcellular localization of the dCas9 domain in the presence or absence of 3 μM BILN-2061. […] FIG. 16D Schematic of the time-dependent dye labeling strategy used to analyze cells expressing SNAP-dCas9-NS3-NLSNPR (top), and corresponding fluorescence images of dye-labeled HeLa cells (bottom). […] Expression of the chemokine receptor was analyzed by staining of cells anti-CXCR4 antibody followed by quantification via flow cytometry.
FIG. 22 sgRNAs targeting the CXCR4 promoter were co-transfected into HEK 293FT alongside DNAs encoding either dCas9-VPR, or dCas9-NS3-NLS/VPR. The extent of CXCR4 upregulation was subsequently quantified by flow cytometry using a fluorescently-labeled anti-CXCR4 antibody. […]
For expression analyses carried out using dCas9-based TFs, HEK 293FT cells were seeded in 48-well plates and transfected at a density of […] cells per well. […] Expression of the chemokine receptor was analysed via flow cytometry using a fluorescently-conjugated CXCR-4 antibody; geometric means were recorded.

[8] = tested on: human Notch1; assay: Dll1-NS3-mCherry ligand presentation and sender/receiver coculture Notch signaling; format: cell-based; details: 1.5 μM BILN-2061
Text: FIG. 17C Immunofluorescence staining of fixed (non-permeabilized) cells expressing Dll1-NS3-mCherry. […] FIG. 17D Schematic depiction of trans-cellular signaling between Notch “receiver” cells by Dll1-NS3-mCherry expressing “sender” cells in the absence and presence of drug. FIG. 17E Fluorescence images of cocultured sender and receiver cells. Sender cells expressed the Dll1-NS3-mCherry ligand. Receiver cells constitutively expressed human Notch1 and H2B-Cerulean, and conditionally expressed H2B-Citrine upon up Notch activation. […] The interface between sender and receiver cells colonies is denoted by the white dotted line. FIG. 17F Magnified region from the inset shown in (17E) shown as an overlay with the corresponding transmitted light image.
FIGS. 25A and 25B show images of Dll1-NS3/4A-mCherry mediated cell-cell signaling captured by epifluorescence imaging under 10× magnification. FIG. 25A Sender cells expressing the Dll1-NS3/4A ligand are cultured with receiver cells expressing the Notch transmembrane receptor. Receiver cell population is identified by a constitutively expressed H2B-Cerulean. Notch activation drives reporter activity of H2B-Citrine. Cells are cultured together with or without 1.5 μM BILN-2061 drug for 72 hours before imaging. FIG. 25B […]

[9] = tested on: HEK 293FT cells; assay: Tension Gauge Tether (TGT) assay of Notch/SynNotch receptor activation; format: cell-based, human; details: mCherry reporter, flow cytometry
Text: FIG. 5A-5E depict the use of ruptureable double-stranded DNA tethers. […] One strand of the TGT attaches to a rigid plate through biotin-avidin binding, while the other presents a ligand. The TGT ruptures at a defined force, determined by the orientation of the ligand and the biotin. If the TGT is weaker than the force required to activate the Notch receptor, it ruptures before the LNR domains can be displaced. If it is stronger, the LNR domains are displaced and activation occurs.
(FIG. 33A) TGTs are double stranded-DNA tethers that rupture at defined forces. One strand of the TGT attaches to a rigid plate, and the other presents a ligand for cells to bind. In this case, the ligand used is fluorescein, which interacts with an αFITC SynNotch. If the tension tolerance of the TGT is weaker than that of the NRR, the TGT will break before the NRR can open. If it is stronger, the NRR domain will unravel, and Notch activation will occur, as visualized by expression of an H2B-mCherry reporter gene.

C[C@H](NC(=O)Cc1cc(F)cc(F)c1)C(=O)N[C@H](C(=O)OC(C)(C)C)c1ccccc1 [DAPT]
effect on leaky SynNotch receptor activation [1]: suppress leaky receptor activation

COc1ccc2c(O[C@@H]3C[C@H]4C(=O)N[C@]5(C(=O)O)C[C@H]5/C=C\CCCCC[C@H](NC(=O)OC5CCCC5)C(=O)N4C3)cc(-c3csc(NC(C)C)n3)nc2c1 [ciluprevir]
stabilization of full-length dCas9-NS3 TF (immunoblot) [2]: dCNV is stabilized

CC(C)(C)OC(=O)N[C@H]1CCCCC/C=C\[C@@H]2C[C@@]2(C(=O)NS(=O)(=O)C2CC2)NC(=O)[C@@H]2C[C@@H](OC(=O)N3Cc4cccc(F)c4C3)CN2C1=O [danoprevir]
expression of the H2B-Citrine reporter protein [3]: capable of inducing robust transcriptional responses

COc1ccc2c(O[C@@H]3C[C@H]4C(=O)N[C@]5(C(=O)O)C[C@H]5/C=C\CCCCC[C@H](NC(=O)OC5CCCC5)C(=O)N4C3)cc(-c3csc(NC(C)C)n3)nc2c1 [BILN-2061]
regulation of TRE BFP and UAS H2B-Citrine reporters [4]: induced concurrent TRE BFP activation and UAS H2B-Citrine repression
BILN-2061 concentration at which TF stabilization was shown (enhanced detection) [5]: 0.08 µM
preservation of intact turn-off TF proteins (western blot) [6]: Intact proteins were preserved
upregulation of gene targets (UAS H2B-Citrine reporter, CXCR4) [7]: induce upregulation of both gene targets in a dose-dependent manner
Notch activation of receiver cells (H2B-Citrine) in coculture ([8]; Dll1-NS3-mCherry sender cells): Activated receiver cells were observed only in cocultures treated with drug
surface presentation of Dll1 extracellular region ([8]; fixed non-permeabilized cells expressing Dll1-NS3-mCherry): Surface presentation of the Dll1 extracellular region was induced
nuclear localization of dCas9 domain ([2]; HeLa cells, 3 μM BILN-2061): Nuclear localized dCas9 was observed only in drug treated cells
stabilization of full-length dCas9-NS3 TF (immunoblot) [2]: preservation of full-length dCas9-NS3-NLSNPR copies
expression of the H2B-Citrine reporter protein [3]: capable of inducing robust transcriptional responses

B1: WT NRR: "Notch's force-sensitive Negative Regulatory Region, which contains three LNR domains" (protein, listed as Homo sapiens)
chain: ILDYSFGGGAGRDIPPPLIEEACELPECQEDAGNKVCSLQCNNHACGWDGGDCSLNFNDPWKNCTQSLQCWKYFSDGHCDSQCNSAGCLFDGFDCQRAEGQCNPLYDQYCKDHFSDGHCDQGCNSAECEWDGLDCAEHVPERLAAGTLVVVVLMPPEQLRNSSFHFLRELSRVLHTNVVFKRDAHGQQMIFPYYGREEELRKHPIKRAAEGWAAPDALLGQVKASLLPGGSEGGRRRRELDPMDVRGSIVYLEIDNRQCVQASSQCFQSATDVAAFLGALASLGSLNIPYKIEAVQSETVEPPPPAQ
receptor activation on TGTs of defined strength [9]: activated by both 12 pN and 56 pN TGTs; also recorded: responding identically to all mechanical stimuli

Source: patent US10858443B2, “Synthetic notch protein for modulating gene expression” (TRUSTEES OF BOSTON UNIVERSITY, priority 2017, dated 2020)
